Laboratory results as given in PubChem BioAssay (NCI).
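Assay format: 96-well plates, 48-hour exposure. TGI is the concentration that stops growth completely.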

How the values were obtained:
Assay in all cases: inhibition of tumour cell growth, NCI panel, 48 h
[1] = tested on: SK-MEL-5 melanoma
[2] = tested on: NCI/ADR-RES ovarian
[3] = tested on: BT-549 breast
[4] = tested on: NCI-H460 lung
[5] = tested on: K-562 leukemia
[6] = tested on: MOLT-4 leukemia
[7] = tested on: 786-0 renal
[8] = tested on: HCC-2998 colon
[9] = tested on: OVCAR-3 ovarian
[10] = tested on: SR leukemia
[11] = tested on: HOP-92 NSCLC
[12] = tested on: SF-268 CNS
[13] = tested on: HCT-15 colon
[14] = tested on: M14 melanoma
[15] = tested on: RXF 393 renal
[16] = tested on: SK-MEL-28 melanoma
[17] = tested on: CAKI-1 renal
[18] = tested on: NCI-H226 lung
[19] = tested on: UACC-257 melanoma
[20] = tested on: SNB-19 CNS
[21] = tested on: HCT-116 colon
[22] = tested on: UACC-62 melanoma
[23] = tested on: SW-620 colon
[24] = tested on: A498 renal
[25] = tested on: NCI-H23 lung
[26] = tested on: CCRF-CEM leukemia
[27] = tested on: PC-3 prostate
[28] = tested on: SN12C renal
[29] = tested on: RPMI-8226 leukemia
[30] = tested on: DU-145 prostate
[31] = tested on: OVCAR-5 ovarian
[32] = tested on: U251 CNS
[33] = tested on: IGROV1 ovarian
[34] = tested on: OVCAR-4 ovarian
[35] = tested on: KM12 colon
[36] = tested on: MDA-N
[37] = tested on: SF-295 CNS
[38] = tested on: HT29 colon
[39] = tested on: EKVX NSCLC
[40] = tested on: HL-60(TB) leukemia
[41] = tested on: COLO 205 colon
[42] = tested on: MCF7 breast
[43] = tested on: A549 NSCLC
[44] = tested on: UO-31 renal
[45] = tested on: ACHN renal
[46] = tested on: HOP-62 NSCLC
[47] = tested on: HS 578T breast
[48] = tested on: MDA-MB-435
[49] = tested on: LOX IMVI melanoma
[50] = tested on: SF-539 CNS
[51] = tested on: MDA-MB-231 breast
[52] = tested on: SNB-75 CNS
[53] = tested on: OVCAR-8 ovarian
[54] = tested on: SK-MEL-2 melanoma
[55] = tested on: SK-OV-3 ovarian
[56] = tested on: NCI-H522 lung
[57] = tested on: TK-10 renal
[58] = tested on: MALME-3M melanoma
[59] = tested on: T-47D breast

Cc1ccc(Nc2cn(COCc3ccccc3)c(=O)[nH]c2=O)cc1
TGI [1]: > 100 µM
TGI [2]: > 100 µM
TGI [3]: 82 µM
TGI [4]: > 100 µM
TGI [5]: > 100 µM
TGI [6]: > 100 µM
TGI [7]: > 100 µM
TGI [8]: > 100 µM
TGI [9]: > 100 µM
TGI [10]: > 100 µM
TGI [11]: > 100 µM
TGI [12]: > 100 µM
TGI [13]: > 100 µM
TGI [14]: > 100 µM
TGI [15]: > 100 µM
TGI [16]: > 100 µM
TGI [17]: > 100 µM
TGI [18]: > 100 µM
TGI [19]: > 100 µM
TGI [20]: > 100 µM
TGI [21]: > 100 µM
TGI [22]: > 100 µM
TGI [23]: > 100 µM
TGI [24]: > 100 µM
TGI [25]: > 100 µM
TGI [26]: > 100 µM
TGI [27]: > 100 µM
TGI [28]: > 100 µM
TGI [29]: > 100 µM
TGI [30]: > 100 µM
TGI [31]: > 100 µM
TGI [32]: > 100 µM
TGI [33]: > 100 µM
TGI [34]: > 100 µM
TGI [35]: > 100 µM
TGI [36]: > 100 µM
TGI [37]: > 100 µM
TGI [38]: > 100 µM
TGI [39]: > 100 µM
TGI [40]: > 100 µM
TGI [41]: > 100 µM
TGI [42]: > 100 µM
TGI [43]: > 100 µM
TGI [44]: > 100 µM
TGI [45]: > 100 µM
TGI [46]: > 100 µM
TGI [47]: > 100 µM
TGI [48]: > 100 µM
TGI [49]: > 100 µM

Cc1ccc(-n2cc(-c3ccc(Cl)cc3)c(C#N)c2N)cc1
TGI [1]: 29.7 µM
TGI [2]: 39.1 µM
TGI [3]: 32.1 µM
TGI [4]: 30.4 µM
TGI [5]: 47.9 µM
TGI [7]: 29.1 µM
TGI [50]: 30.9 µM
TGI [8]: 28.4 µM
TGI [9]: 29.1 µM
TGI [10]: > 100 µM
TGI [11]: 31.5 µM
TGI [12]: 42.3 µM
TGI [13]: 25 µM
TGI [51]: 28.7 µM
TGI [14]: 28.7 µM
TGI [15]: 23.1 µM
TGI [16]: 33.2 µM
TGI [17]: 45.3 µM
TGI [18]: 31.7 µM
TGI [19]: 27.9 µM
TGI [20]: 38.1 µM
TGI [21]: 27.1 µM
TGI [22]: 29.9 µM
TGI [23]: 26 µM
TGI [24]: 35.6 µM
TGI [25]: 31.5 µM
TGI [52]: 47.9 µM
TGI [26]: > 100 µM
TGI [27]: 25.4 µM
TGI [28]: 28 µM
TGI [53]: 30.5 µM
TGI [30]: 71.4 µM
TGI [54]: 29.4 µM
TGI [31]: 30.6 µM
TGI [32]: 27.3 µM
TGI [33]: 29.9 µM
TGI [34]: 28.4 µM
TGI [55]: 43.4 µM
TGI [56]: 24.7 µM
TGI [36]: 32.5 µM
TGI [37]: 33.8 µM
TGI [38]: 27 µM
TGI [39]: 30.5 µM
TGI [40]: 90.7 µM
TGI [41]: 27.1 µM
TGI [42]: 28.2 µM
TGI [43]: 43.2 µM
TGI [57]: 28.2 µM
TGI [44]: 26.5 µM
TGI [58]: 33.1 µM
TGI [45]: 50 µM
TGI [46]: 31.9 µM
TGI [47]: 17.2 µM
TGI [48]: 32.7 µM
TGI [49]: 29.8 µM

c1ccc(CSC(SCc2ccccc2)c2ccc3c(c2)OCO3)cc1
TGI [1]: > 10 µM
TGI [2]: > 10 µM
TGI [4]: > 10 µM
TGI [5]: > 10 µM
TGI [6]: > 10 µM
TGI [7]: > 10 µM
TGI [50]: > 10 µM
TGI [8]: > 10 µM
TGI [9]: > 10 µM
TGI [11]: > 10 µM
TGI [12]: > 10 µM
TGI [13]: > 10 µM
TGI [51]: > 10 µM
TGI [14]: > 10 µM
TGI [15]: > 10 µM
TGI [16]: > 10 µM
TGI [17]: > 10 µM
TGI [18]: > 10 µM
TGI [19]: > 10 µM
TGI [20]: > 10 µM
TGI [21]: > 10 µM
TGI [22]: > 10 µM
TGI [23]: > 10 µM
TGI [24]: > 10 µM
TGI [25]: > 10 µM
TGI [52]: > 10 µM
TGI [26]: > 10 µM
TGI [27]: > 10 µM
TGI [28]: > 10 µM
TGI [29]: > 10 µM
TGI [53]: > 10 µM
TGI [59]: > 10 µM
TGI [30]: > 10 µM
TGI [54]: > 10 µM
TGI [32]: > 10 µM
TGI [33]: > 10 µM
TGI [34]: > 10 µM
TGI [35]: > 10 µM
TGI [55]: > 10 µM
TGI [56]: > 10 µM
TGI [36]: > 10 µM
TGI [37]: > 10 µM
TGI [38]: > 10 µM
TGI [39]: > 10 µM
TGI [40]: > 10 µM
TGI [41]: > 10 µM
TGI [42]: > 10 µM
TGI [43]: > 10 µM
TGI [57]: > 10 µM
TGI [44]: > 10 µM
TGI [58]: > 10 µM
TGI [45]: > 10 µM
TGI [46]: > 10 µM
TGI [47]: > 10 µM
TGI [49]: > 10 µM

CCCN(CCC)C(=O)c1c(Cl)c2cccnc2n2c(C)cnc12
TGI [1]: > 100 µM
TGI [2]: > 100 µM
TGI [4]: > 100 µM
TGI [5]: > 100 µM
TGI [6]: > 100 µM
TGI [7]: > 100 µM
TGI [50]: > 100 µM
TGI [8]: > 100 µM
TGI [9]: > 100 µM
TGI [10]: > 100 µM
TGI [11]: > 100 µM
TGI [12]: > 100 µM
TGI [51]: > 100 µM
TGI [14]: > 100 µM
TGI [15]: > 100 µM
TGI [16]: > 100 µM
TGI [17]: 79.7 µM
TGI [18]: > 100 µM
TGI [19]: > 100 µM
TGI [20]: > 100 µM
TGI [21]: > 100 µM
TGI [22]: > 100 µM
TGI [23]: > 100 µM
TGI [24]: > 100 µM
TGI [25]: > 100 µM
TGI [52]: > 100 µM
TGI [26]: > 100 µM
TGI [27]: 98.6 µM
TGI [28]: > 100 µM
TGI [29]: > 100 µM
TGI [53]: > 100 µM
TGI [59]: > 100 µM
TGI [30]: > 100 µM
TGI [31]: > 100 µM
TGI [33]: > 100 µM
TGI [34]: > 100 µM
TGI [35]: > 100 µM
TGI [55]: > 100 µM
TGI [56]: > 100 µM
TGI [36]: > 100 µM
TGI [37]: > 100 µM
TGI [38]: > 100 µM
TGI [39]: > 100 µM
TGI [40]: 71.7 µM
TGI [41]: > 100 µM
TGI [42]: > 100 µM
TGI [43]: > 100 µM
TGI [57]: > 100 µM
TGI [44]: > 100 µM
TGI [58]: > 100 µM
TGI [45]: > 100 µM
TGI [46]: > 100 µM
TGI [47]: > 100 µM
TGI [48]: 85.3 µM
TGI [49]: > 100 µM
